Assays:
Caspase 7 = molecular target: T1, Caspase 7 (Homo sapiens, UniProt P55210); test: Caspase 7 enzymatic inhibition assay, IC50; assay type: biochemical; settings: read-out: Caspase 7 enzyme inhibition IC50
T1 construct: purchased Enzo Biosciences
T1 sequence (P55210 24-198 limits assumed): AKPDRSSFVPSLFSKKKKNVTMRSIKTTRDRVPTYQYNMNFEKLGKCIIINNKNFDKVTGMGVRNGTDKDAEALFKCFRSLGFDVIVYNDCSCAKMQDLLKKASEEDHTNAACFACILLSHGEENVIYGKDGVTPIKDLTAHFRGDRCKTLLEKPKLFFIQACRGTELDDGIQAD
T1 sequence (P55210 207-303 limits assumed): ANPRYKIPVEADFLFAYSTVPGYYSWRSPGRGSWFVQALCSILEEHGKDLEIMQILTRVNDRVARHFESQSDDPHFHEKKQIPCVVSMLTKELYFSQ
Summary of the method: (§1)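 Human caspase-3/-6/-7, commercial enzyme; run per manufacturer's instructions; IC50 from enzymatic activity.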

IL-1β = test: Inhibition of LPS-stimulated IL-1β in THP-1 cells (ELISA); assay type: cell-based, human; settings: Homo sapiens, 10 micromolar, read-out: Percent Inhibition of IL1-β
Description: Compounds in the present invention were tested in THP-1 cells, a human monocyte cell line, to assess the inhibition of the inflammatory cytokine IL-1β. THP-1 cells (ATCC TIB-202) were grown in culture and seeded in 96 well plates at a concentration of 200,000 cells per well with a total volume of 150 μL. Plated cells were incubated overnight at 37 degrees C. under an atmosphere of 5% CO2. Media was removed from cells which were washed with PBS. Test compounds were diluted in DMSO stock solution and serially diluted appropriately for initial screening and IC50 determinations. LPS in serum free media (140 μL of […]) was added to each well to stimulate IL-1β production. IL-1β was measured by ELISA assay kit (R&D Systems) per the manufacturers instructions.
IC50 values for the inhibition of IL-1 in THP 1 cells were determined from dose response studies.

Caspase-1 = molecular target: T2, Caspase-1 (Homo sapiens, UniProt P29466); test: Caspase-1 enzyme inhibition assay (Ac-YVAD-pNA substrate), IC50; assay type: biochemical
T2 construct: purchased Enzo Biosciences
T2 sequence (P29466 120-297 limits assumed): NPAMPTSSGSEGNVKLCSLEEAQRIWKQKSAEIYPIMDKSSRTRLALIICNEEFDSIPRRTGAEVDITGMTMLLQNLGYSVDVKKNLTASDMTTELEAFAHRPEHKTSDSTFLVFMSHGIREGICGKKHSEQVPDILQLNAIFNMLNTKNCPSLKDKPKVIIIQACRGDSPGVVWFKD
T2 sequence (P29466 317-404 limits assumed): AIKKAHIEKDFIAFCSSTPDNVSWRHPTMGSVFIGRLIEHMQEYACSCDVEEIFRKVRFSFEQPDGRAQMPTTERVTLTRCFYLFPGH
Summary of the method: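 Buffer was 50 mM HEPES pH 7.4, 100 mM NaCl, 0.1% CHAPS, 1 mM EDTA, 10% glycerol and 10 mM DTT. Caspase-1 was reacted with 200 μM Ac-YVAD-pNA (final). Release of p-nitroaniline was followed continuously at 405 nm, and rates were taken from the linear slope (ε 10,500 M-1 cm-1).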

Jurkat cells = test: Prevention of Fas-induced apoptosis in Jurkat cells (WST-8); assay type: cell-based; settings: Homo sapiens, 10 micromolar, read-out: % Prevention of Fas - induced Jurkat cell apoptosis at 10 micromolar
Description: Compounds of the present invention were evaluated in Jurkat cells, a human T-lymphocyte cell line, to evaluate compounds ability to inhibit apoptotic cell death. Jurkat cells, Clone E6-1 (ATCC TIB-152) were grown in culture maintain a cell density between 0.5-2 million cells/mL. Cells were tested for viability and countion with typan blue stain before use. Test compounds were addedd to 96 well plates and Jurkat cells were added at a concentration of approximately 100,000 cells per well and mixed thoroughly by action of pipetting. Plated cells were incubated for 1 hour at 37 degrees C. under an atmosphere of 5% CO2. Anti-Fas antibody was added and mixed by pipet action. Plates were incubated for 20 hours at 37 degrees C. under an atmosphere of 5% CO2. 10 microliters of thawed WST-8 solution was added to each well and incubated for 4 hours. Absorbance was measured at 450 nm and control reading at […] using a SpectraMax ID5 plate reader. Apoptotic cell death is executed by caspases 3, 7 and 6. Compounds that lack activity against these caspases will not prevent the death of Jurkat cells and is a functional test of selectivity for inflammatory over apoptotic caspases.
IC50 values to protect against Fas induced apoptosis and improve survival of Jurkat cells were determined from dose response studies.

Caspase-3 = molecular target: T3, Caspase-3 (Homo sapiens, UniProt P42574); test: Caspase-3 enzymatic inhibition assay, IC50; assay type: biochemical; settings: read-out: Caspase 3 enzyme inhibition IC50
T3 construct: purchased Enzo Biosciences
T3 sequence (P42574 29-175 limits assumed): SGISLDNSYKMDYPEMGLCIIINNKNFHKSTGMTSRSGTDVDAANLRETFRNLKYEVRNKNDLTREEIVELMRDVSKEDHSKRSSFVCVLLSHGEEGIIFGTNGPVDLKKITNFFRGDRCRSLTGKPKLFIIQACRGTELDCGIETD
T3 sequence (P42574 176-277 limits assumed): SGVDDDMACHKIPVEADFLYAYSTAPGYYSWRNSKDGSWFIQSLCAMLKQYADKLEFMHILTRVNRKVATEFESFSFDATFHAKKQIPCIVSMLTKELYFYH
Summary of the method: as §1

Caspase 6 = molecular target: T4, Caspase 6 (Homo sapiens, UniProt P55212); test: Caspase 6 enzymatic inhibition assay, IC50; assay type: biochemical; settings: read-out: Caspase 6 enzyme inhibition IC50
T4 construct: purchased Enzo Biosciences
T4 sequence (P55212 24-179 limits assumed): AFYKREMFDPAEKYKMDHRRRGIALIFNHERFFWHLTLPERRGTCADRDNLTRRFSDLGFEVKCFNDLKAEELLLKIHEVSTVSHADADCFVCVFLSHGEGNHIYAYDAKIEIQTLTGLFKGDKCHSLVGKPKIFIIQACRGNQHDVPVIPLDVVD
T4 sequence (P55212 194-293 limits assumed): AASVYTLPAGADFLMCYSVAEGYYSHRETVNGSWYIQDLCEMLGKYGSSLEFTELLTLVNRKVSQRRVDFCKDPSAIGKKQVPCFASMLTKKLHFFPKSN
Summary of the method: as §1

Row | IC50 (Caspase 7) [nM] | IC50 (Caspase-1) [nM] | IC50 (Caspase-3) [nM] | IC50 (Caspase 6) [nM] | SMILES | inhibition at 10 µM (IL-1β) [%] | inhibition at 10 µM (Jurkat cells) [%]
1 | 100 to 1000 | ≤ 10 | 100 to 1000 | 100 to 1000 | O=C(O)CC[C@H](NC(=O)C1(NC(=O)C(=O)Nc2c(F)cccc2F)CCCC1)C(=O)COc1c(F)c(F)cc(F)c1F [Example 14, (S)-4-(1-(2-((2,6-Difluorophenyl)amino)-2-oxoacetamido)cyclopentane-1-carboxamido)-5-oxo-6-(2,3,5,6-tetrafluorophenoxy)hexanoic acid] | > 90 | ≤ 10
2 | ≥ 1000 | ≤ 10 | ≥ 1000 | ≥ 1000 | Cc1cccc(NC(=O)C(=O)N[C@@H](C)C(=O)N[C@@H](CCC(=O)O)C(=O)COc2c(F)c(F)cc(F)c2F)c1 [Example 20, (S)-4-((S)-2-(2-((3-methylphenyl)amino)-2-oxoacetamido)propanamido)-5-oxo-6-(2,3,5,6-tetrafluorophenoxy)hexanoic acid] | > 90 | ≤ 10
3 | ≥ 1000 | ≤ 10 | ≥ 1000 | ≥ 1000 | C[C@H](NC(=O)C(=O)Nc1c(F)cccc1F)C(=O)N[C@@H](CCC(=O)O)C(=O)COc1cc(C(F)(F)F)cc(C(F)(F)F)c1 [Example 10, (S)-6-(3,5-bis(trifluoromethyl)phenoxy)-4-((S)-2-(2-((2,6-difluorophenyl)amino)-2-oxoacetamido)propanamido)-5-oxohexanoic acid] | > 90 | ≤ 10
4 | ≥ 1000 | 10 to 100 | ≥ 1000 | ≥ 1000 | C[C@H](NC(=O)C(=O)Nc1c(F)cccc1F)C(=O)N[C@@H](CCOC(=O)Oc1ccccc1)C(=O)COc1c(F)c(F)cc(F)c1F [Example 7, (S)-3-((S)-2-(2-((2,6-Difluorophenyl)amino)-2-oxoacetamido)propanamido)-4-oxo-5-(2,3,5,6-tetrafluorophenoxy)pentyl phenyl carbonate] | 50 to 90 | ≤ 10

Source: patent US11597703B2, “Caspase inhibitors and methods of use thereof” (Histogen Inc., priority 2019, dated 2023)
